25 compounds from patent publication US10323018B2 (Millennium Pharmaceuticals, Inc., priority 2015, dated 2019) can be followed below.

Where only a bound is given, the exact number is not on record here.

The target of one experiment is hNAMPT protein (Homo sapiens (Human), UniProt P43490). The experiment can be described thus: NAMPT enzyme assay (TR-FRET/HTRF with BodiPY ligand). Type of experiment: binding. The note with it: for inhibition at 1 µM: NAMPT inhibition at compound concentration 1 μM, read-out: Percent Inhibition; for IC50: NAMPT inhibition, IC50 range class. In outline:
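Ligand displacement by TR-FRET: BodiPY emission (520 nm) over terbium (486 nm) after 320 nm excitation. Compound, BodiPY ligand, hNAMPT and anti-6His-Tb incubated 1 h at room temperature, dark, at pH 7.5. Percent inhibition computed versus DMSO; concentration-response curves fitted for IC50.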
(In general: In TR-FRET formats the signal depends on donor and acceptor labels being close together.)

The next experiment concerns PC3 cells. The experiment can be described thus: PC3 growth inhibition (Cell-titer glo, 72 hours). The format is cell-based. The note with it: Homo sapiens, PC-3, 72 h, read-out: Percent Viability, PC3 cells, compound concentration 1.667 μM, 72 hours. The essentials: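 After 72 h compound treatment in AIM serum-free medium (37 °C, 5% CO2), viability of overnight-plated PC3 cells (8×10^4 cells/ml, RPMI1640-maintained) is read by CellTiter-Glo luminescence versus DMSO. Curves give GI50, LD50 or single-concentration % remaining viability.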

Sequence of hNAMPT protein (P43490 whole entry): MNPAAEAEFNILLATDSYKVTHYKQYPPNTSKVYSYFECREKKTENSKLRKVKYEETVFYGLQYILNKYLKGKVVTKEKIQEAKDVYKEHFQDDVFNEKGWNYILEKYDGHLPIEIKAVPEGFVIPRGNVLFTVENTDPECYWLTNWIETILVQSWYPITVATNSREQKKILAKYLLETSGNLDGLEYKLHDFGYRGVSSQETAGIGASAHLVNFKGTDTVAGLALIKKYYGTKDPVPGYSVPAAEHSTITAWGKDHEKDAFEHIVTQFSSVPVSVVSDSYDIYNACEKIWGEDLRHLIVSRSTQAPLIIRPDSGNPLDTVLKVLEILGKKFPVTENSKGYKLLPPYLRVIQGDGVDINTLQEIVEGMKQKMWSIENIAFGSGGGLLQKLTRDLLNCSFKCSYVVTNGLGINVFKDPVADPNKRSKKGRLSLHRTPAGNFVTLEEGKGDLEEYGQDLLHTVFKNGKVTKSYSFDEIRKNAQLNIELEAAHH

For `CCOc1cc(-c2ccc(F)cc2)nc2cc(C(=O)NCCc3cnn[nH]3)ccc12` [Compound I-107, 4-ethoxy-2-(4-fluorophenyl)-N-[2-(1H-1,2,3-triazol-5-yl)ethyl]quinoline-7-carboxamide], at hNAMPT protein, the inhibition (in general, the drop in the measured response relative to a control, in per cent) at 1 µM worked out at 99% and the concentration for half-maximal inhibition (IC50) (usually the concentration that inhibits the measured activity by half) was < 10 nM. Further, in the experiment on PC3 cells, the viability at 1.667 µM was 2%.

Turning to `CCOc1cc(-c2ccc(F)cc2OC)nc2cc(C(=O)NCCc3cnn[nH]3)ccc12` [Compound I-108, 4-ethoxy-2-(4-fluoro-2-methoxyphenyl)-N-[2-(1H-1,2,3-triazol-5-yl)ethyl]quinoline-7-carboxamide], at hNAMPT protein, the inhibition at 1 µM was found to be 99% and the IC50 lay in the range of 10 to 50 nM. Moreover, the viability at 1.667 µM with PC3 cells amounted to 3%.

As to `COCCOc1cc(-c2ccc(F)cc2)nc2cc(C(=O)NCCCc3cn[nH]n3)ccc12` [Compound I-109, 2-(4-fluorophenyl)-4-(2-methoxyethoxy)-N-[3-(2H-1,2,3-triazol-4-yl)propyl]quinoline-7-carboxamide], at hNAMPT protein, the inhibition at 1 µM turned out to be 100% and the concentration for half-maximal inhibition (IC50) fell in the range of 10 to 50 nM. Besides, the viability at 1.667 µM in the experiment on PC3 cells came to 2%.

As for `CCOc1cc(-c2ccc(C)nc2)nc2cc(C(=O)NCCCc3cnn[nH]3)ccc12` [Compound I-110, 4-ethoxy-2-(6-methylpyridin-3-yl)-N-[3-(1H-1,2,3-triazol-5-yl)propyl]quinoline-7-carboxamide], on hNAMPT protein, the inhibition at 1 µM was 100% and the IC50 was < 10 nM. In addition, in the experiment on PC3 cells, the viability at 1.667 µM is 2%.

With `CCOc1cc(-c2ccc(C)nc2)nc2cc(C(=O)NCCCc3cc[nH]n3)ccc12` [Compound I-111, 4-ethoxy-2-(6-methylpyridin-3-yl)-N-[3-(1H-pyrazol-3-yl)propyl]quinoline-7-carboxamide], on hNAMPT protein, the inhibition at 1 µM amounted to 97% and the IC50 lay in the range of 10 to 50 nM. Besides, the viability at 1.667 µM in the experiment with PC3 cells amounted to 2%.

With `CCOc1cc(-c2ccc(C)nc2)nc2cc(C(=O)NCCCc3[nH]nnc3C)ccc12` [Compound I-112, 4-ethoxy-2-(6-methylpyridin-3-yl)-N-[3-(4-methyl-1H-1,2,3-triazol-5-yl)propyl]quinoline-7-carboxamide], on hNAMPT protein, the inhibition at 1 µM came to 99% and the IC50 was 10 to 50 nM. Moreover, the viability at 1.667 µM in the experiment with PC3 cells was 2%.

With `CCOc1cc(-c2ccc(C)nc2)nc2cc(C(=O)NCCc3c[nH]nc3C)ccc12` [Compound I-113, 4-ethoxy-N-[2-(3-methyl-1H-pyrazol-4-yl)ethyl]-2-(6-methylpyridin-3-yl)quinoline-7-carboxamide], on hNAMPT protein, the inhibition at 1 µM worked out at 97% and the 50% inhibitory concentration (IC50) is 10 to 50 nM. Also, the viability at 1.667 µM in the experiment on PC3 cells is 2%.

As to `CCOc1cc(-c2ccnc(OC)c2)nc2cc(C(=O)NCCCc3nnc[nH]3)ccc12` [Compound I-114, 4-ethoxy-2-(2-methoxypyridin-4-yl)-N-[3-(4H-1,2,4-triazol-3-yl)propyl]quinoline-7-carboxamide], on hNAMPT protein, the inhibition at 1 µM was 97% and the half-maximal inhibitory concentration (IC50) was in the range of 10 to 50 nM. For the same compound, the viability at 1.667 µM in the experiment with PC3 cells turned out to be 2%.

On to `CCOc1cc(-c2ccc(F)cc2)nc2cc(C(=O)NCCCc3cnn[nH]3)ccc12` [Compound I-115, 4-ethoxy-2-(4-fluorophenyl)-N-[3-(1H-1,2,3-triazol-5-yl)propyl]quinoline-7-carboxamide], for which, on hNAMPT protein, the inhibition at 1 µM is > 99% and the IC50 is < 10 nM. Also, the viability at 1.667 µM in the experiment with PC3 cells is 2%.

For `CCOc1cc(-c2ccnc(OC)c2)nc2cc(C(=O)NCCCc3cnn[nH]3)ccc12` [Compound I-116, 4-ethoxy-2-(2-methoxypyridin-4-yl)-N-[3-(1H-1,2,3-triazol-5-yl)propyl]quinoline-7-carboxamide], on hNAMPT protein, the inhibition at 1 µM was found to be 98% and the half-maximal inhibitory concentration (IC50) is < 10 nM. Also, the viability at 1.667 µM with PC3 cells is 2%.

As to `CCOc1cc(-c2ccnc(C)c2)nc2cc(C(=O)NCCCc3cnn[nH]3)ccc12` [Compound I-117, 4-ethoxy-2-(2-methylpyridin-4-yl)-N-[3-(1H-1,2,3-triazol-5-yl)propyl]quinoline-7-carboxamide], on hNAMPT protein, the inhibition at 1 µM was 100% and the IC50 is < 10 nM. Further, the viability at 1.667 µM in the experiment with PC3 cells amounted to 2%.

With `CCOc1cc(-c2ccn(C)c(=O)c2)nc2cc(C(=O)NCCCc3nnc[nH]3)ccc12` [Compound I-118, 4-ethoxy-2-(1-methyl-2-oxo-1,2-dihydropyridin-4-yl)-N-[3-(4H-1,2,4-triazol-3-yl)propyl]quinoline-7-carboxamide], at hNAMPT protein, the inhibition at 1 µM was found to be 99% and the IC50 lay in the range of 10 to 50 nM. In addition, in the experiment with PC3 cells, the viability at 1.667 µM came out at 2%.

Consider `CCOc1cc(-c2ccn(C)c(=O)c2)nc2cc(C(=O)NCCCc3cc[nH]n3)ccc12` [Compound I-119, 4-ethoxy-2-(1-methyl-2-oxo-1,2-dihydropyridin-4-yl)-N-[3-(1H-pyrazol-3-yl)propyl]quinoline-7-carboxamide], for which, on hNAMPT protein, the inhibition at 1 µM turned out to be 100% and the 50% inhibitory concentration (IC50) was 10 to 50 nM. For the same compound, the viability at 1.667 µM in the experiment on PC3 cells is 2%.

For `COCCOc1cc(-c2ccc(F)cc2)nc2cc(C(=O)NCCCc3cc[nH]n3)ccc12` [Compound I-120, 2-(4-fluorophenyl)-4-(2-methoxyethoxy)-N-[3-(1H-pyrazol-3-yl)propyl]quinoline-7-carboxamide], at hNAMPT protein, the inhibition at 1 µM turned out to be 94% and the concentration for half-maximal inhibition (IC50) is 10 to 50 nM. Besides, in the experiment with PC3 cells, the viability at 1.667 µM was 2%.

In the case of `CCOc1cc(-c2ccc(F)cc2OC)nc2cc(C(=O)NCCCc3cnn[nH]3)ccc12` [Compound I-121, 4-ethoxy-2-(4-fluoro-2-methoxyphenyl)-N-[3-(1H-1,2,3-triazol-5-yl)propyl]quinoline-7-carboxamide], on hNAMPT protein, the inhibition at 1 µM was > 99% and the IC50 was < 10 nM. In addition, the viability at 1.667 µM in the experiment on PC3 cells was determined as 2%.

Consider `CCOc1cc(-c2ccc(=O)n(C)c2)nc2cc(C(=O)NCCCc3nnc[nH]3)ccc12` [Compound I-122, 4-ethoxy-2-(1-methyl-6-oxo-1,6-dihydropyridin-3-yl)-N-[3-(4H-1,2,4-triazol-3-yl)propyl]quinoline-7-carboxamide], for which, on hNAMPT protein, the inhibition at 1 µM was > 99% and the half-inhibitory concentration (IC50) lay in the range of 10 to 50 nM. Moreover, the viability at 1.667 µM with PC3 cells is 2%.

With `CCOc1cc(-c2ccc(=O)n(C)c2)nc2cc(C(=O)NCCCc3cc[nH]n3)ccc12` [Compound I-123, 4-ethoxy-2-(1-methyl-6-oxo-1,6-dihydropyridin-3-yl)-N-[3-(1H-pyrazol-3-yl)propyl]quinoline-7-carboxamide], on hNAMPT protein, the inhibition at 1 µM is > 99% and the IC50 was in the range of 10 to 50 nM. In the experiment with PC3 cells, the viability at 1.667 µM came out at 2%.

As to `COCCOc1cc(-c2ccc(F)cc2)nc2cc(C(=O)NCCCc3ncn[nH]3)ccc12` [Compound I-124, N-(3-(4H-1,2,4-triazol-3-yl)propyl)-2-(4-fluorophenyl)-4-(2-methoxyethoxy)quinoline-7-carboxamide], at hNAMPT protein, the inhibition at 1 µM was found to be 92% and the IC50 was 50 to 100 nM. Besides, in the experiment with PC3 cells, the viability at 1.667 µM amounted to 2%.

In the case of `CCOc1cc(-c2ccc(Cl)s2)nc2cc(C(=O)NCCCc3nnc[nH]3)ccc12` [Compound I-125, 2-(5-chloro-2-thienyl)-4-ethoxy-N-[3-(4H-1,2,4-triazol-3-yl)propyl]quinoline-7-carboxamide], at hNAMPT protein, the inhibition at 1 µM was found to be 100% and the IC50 was < 10 nM. Further, the viability at 1.667 µM in the experiment with PC3 cells was 2%.

Take `COCCOc1cc(-c2ccc(F)cc2)nc2cc(C(=O)NCCc3c[nH]nc3C)ccc12` [Compound I-126, 2-(4-fluorophenyl)-4-(2-methoxyethoxy)-N-[2-(3-methyl-1H-pyrazol-4-yl)ethyl]quinoline-7-carboxamide]: at hNAMPT protein, the inhibition at 1 µM turned out to be 91% and the IC50 lay in the range of 50 to 100 nM. The viability at 1.667 µM with PC3 cells was determined as 2%.

Turning to `CCOc1cc(-c2cncc(C)c2)nc2cc(C(=O)NCCCc3nnc[nH]3)ccc12` [Compound I-127, 4-ethoxy-2-(5-methylpyridin-3-yl)-N-[3-(4H-1,2,4-triazol-3-yl)propyl]quinoline-7-carboxamide], at hNAMPT protein, the inhibition at 1 µM was found to be 87% and the half-maximal inhibitory concentration (IC50) was in the range of 50 to 100 nM. In the experiment with PC3 cells, the viability at 1.667 µM stood at 2%.

On to `CCOc1cc(-c2ccc(F)cc2OC)nc2cc(C(=O)NCCCc3cc[nH]n3)ccc12` [Compound I-128, 4-ethoxy-2-(4-fluoro-2-methoxyphenyl)-N-[3-(1H-pyrazol-3-yl)propyl]quinoline-7-carboxamide], for which, on hNAMPT protein, the inhibition at 1 µM came to 96% and the 50% inhibitory concentration (IC50) is 10 to 50 nM. In the experiment on PC3 cells, the viability at 1.667 µM came to 2%.

On to `CCOc1cc(-c2ccc(F)cc2OC)nc2cc(C(=O)NCCc3c[nH]nc3C)ccc12` [Compound I-129, 4-ethoxy-2-(4-fluoro-2-methoxyphenyl)-N-[2-(3-methyl-1H-pyrazol-4-yl)ethyl]quinoline-7-carboxamide], for which, at hNAMPT protein, the inhibition at 1 µM is 96% and the IC50 is 10 to 50 nM. Also, the viability at 1.667 µM in the experiment with PC3 cells turned out to be 2%.

Turning to `CCOc1cc(-c2ccc(F)cc2)nc2cc(C(=O)NCc3ccn4ncnc4c3)ccc12` [Compound I-130, 4-ethoxy-2-(4-fluorophenyl)-N-([1,2,4]triazolo[1,5-a]pyridin-7-ylmethyl)quinoline-7-carboxamide], at hNAMPT protein, the inhibition at 1 µM is 100% and the 50% inhibitory concentration (IC50) is < 10 nM. The viability at 1.667 µM in the experiment on PC3 cells was found to be 2%.

For `CCOc1cc(-c2ccc(F)cc2)nc2cc(C(=O)NCCc3nnc[nH]3)ccc12` [Compound I-131, 4-ethoxy-2-(4-fluorophenyl)-N-[2-(4H-1,2,4-triazol-3-yl)ethyl]quinoline-7-carboxamide], at hNAMPT protein, the inhibition at 1 µM came out at 99% and the half-inhibitory concentration (IC50) was in the range of 10 to 50 nM. For the same compound, the viability at 1.667 µM in the experiment with PC3 cells was 3%.
